Measurements from ChEMBL document CHEMBL1153753, “Structure-activity relationships and mechanism of action of antitumor bis 8-hydroxyquinoline substituted benzylamines” (Eur J Med Chem, 2010).
pEC50: −log10 of the molar value. Active and inactive are the calls of the source.

Experiments:
[1] = Disregulation of cell cycle related gene expression in human U87 cells assessed as change in CDCA7 mRNA level at 0.5 uM after 16 hrs by microarray analysis relative to untreated control; format: functional, cell-based; conditions: U-87MG ATCC
[2] = Disregulation of apoptosis related gene expression in human U87 cells assessed as change in NOXA mRNA level at 0.5 uM after 3 hrs by microarray analysis relative to untreated control; format: functional, cell-based; conditions: U-87MG ATCC
[3] = Disregulation of DNA-damage and oxidative stress responsive gene expression in human U87 cells assessed as change in DDIT4 mRNA level at 0.5 uM after 16 hrs by microarray analysis relative to untreated control; format: functional, U-87MG ATCC
[4] = Disregulation of DNA-damage and oxidative stress responsive gene expression in human U87 cells assessed as change in GADD45A mRNA level at 0.5 uM after 16 hrs by microarray analysis relative to untreated control; format: functional, U-87MG ATCC
[5] = Disregulation of apoptosis related gene expression in human U87 cells assessed as change in E2F1 mRNA level at 0.5 uM after 16 hrs by microarray analysis relative to untreated control; format: functional, cell-based; conditions: U-87MG ATCC
[6] = Disregulation of cell survival related gene expression in human U87 cells assessed as change in BCL2L10 mRNA level at 0.5 uM after 16 hrs by microarray analysis relative to untreated control; format: functional, cell-based; conditions: U-87MG ATCC
[7] = Disregulation of cell cycle related gene expression in human U87 cells assessed as change in CDC25A mRNA level at 0.5 uM after 16 hrs by microarray analysis relative to untreated control; format: functional, cell-based; conditions: U-87MG ATCC
[8] = Disregulation of endoplasmic reticulum stress responsive gene expression in human U87 cells assessed as change in PUMA mRNA level at 0.5 uM after 16 hrs by microarray analysis relative to untreated control; format: functional, cell-based; conditions: U-87MG ATCC
U-87MG ATCC [9] = test: Antiproliferative activity against human U87 cells expressing GFP assessed as apparent cell death at 20 uM after 3 days by flash-cytometry; format: functional, cell-based
[10] = Disregulation of endoplasmic reticulum stress responsive gene expression in human U87 cells assessed as change in Chop mRNA level at 0.5 uM after 16 hrs by microarray analysis relative to untreated control; format: functional, cell-based; conditions: U-87MG ATCC
[11] = Disregulation of endoplasmic reticulum stress responsive gene expression in human U87 cells assessed as change in RGS16 mRNA level at 0.5 uM after 3 hrs by microarray analysis relative to untreated control; format: functional, cell-based; conditions: U-87MG ATCC
[12] = Disregulation of cell cycle related gene expression in human U87 cells assessed as change in CDK2 mRNA level at 0.5 uM after 16 hrs by microarray analysis relative to untreated control; format: functional, cell-based; conditions: U-87MG ATCC
[13] = Disregulation of cell cycle related gene expression in human U87 cells assessed as change in cyclin D mRNA level at 0.5 uM after 16 hrs by microarray analysis relative to untreated control; format: functional, cell-based; conditions: U-87MG ATCC
[14] = Disregulation of apoptosis related gene expression in human U87 cells assessed as change in FAS mRNA level at 0.5 uM after 16 hrs by microarray analysis relative to untreated control; format: functional, cell-based; conditions: U-87MG ATCC
[15] = Disregulation of endoplasmic reticulum stress responsive gene expression in human U87 cells assessed as change in ARN1 mRNA level at 0.5 uM after 16 hrs by microarray analysis relative to untreated control; format: functional, cell-based; conditions: U-87MG ATCC
[16] = Disregulation of cell survival related gene expression in human U87 cells assessed as change in FGF18 mRNA level at 0.5 uM after 16 hrs by microarray analysis relative to untreated control; format: functional, cell-based; conditions: U-87MG ATCC
[17] = Disregulation of DNA-damage and oxidative stress responsive gene expression in human U87 cells assessed as change in SESN2 mRNA level at 0.5 uM after 3 hrs by microarray analysis relative to untreated control; format: functional, U-87MG ATCC
[18] = Disregulation of inflammation related gene expression in human U87 cells assessed as change in EREG mRNA level at 0.5 uM after 3 hrs by microarray analysis relative to untreated control; format: functional, cell-based; conditions: U-87MG ATCC
[19] = Disregulation of cell development related gene expression in human U87 cells assessed as change in PRPX1 mRNA level at 0.5 uM after 16 hrs by microarray analysis relative to untreated control; format: functional, cell-based; conditions: U-87MG ATCC
[20] = Cytotoxicity against human KB3 cells after 72 hrs by MTS assay; format: functional; conditions: KB3, 72 h
[21] = Disregulation of inflammation related gene expression in human U87 cells assessed as change in CCL17 mRNA level at 0.5 uM after 3 hrs by microarray analysis relative to untreated control; format: functional, cell-based; conditions: U-87MG ATCC
[22] = Disregulation of apoptosis related gene expression in human U87 cells assessed as change in GDF15 mRNA level at 0.5 uM after 16 hrs by microarray analysis relative to untreated control; format: functional, cell-based; conditions: U-87MG ATCC
[23] = Antiproliferative activity against human U87 cells expressing GFP after 3 days by flash-cytometry; format: functional, U-87MG ATCC; conditions: U-87 MG, 72 h, read-out: ED50 (the source's name)
[24] = Disregulation of endoplasmic reticulum stress responsive gene expression in human U87 cells assessed as change in ATF3 mRNA level at 0.5 uM after 16 hrs by microarray analysis relative to untreated control; format: functional, cell-based; conditions: U-87MG ATCC
[25] = Disregulation of cell survival related gene expression in human U87 cells assessed as change in FGF2 mRNA level at 0.5 uM after 16 hrs by microarray analysis relative to untreated control; format: functional, cell-based; conditions: U-87MG ATCC
[26] = Disregulation of cell cycle related gene expression in human U87 cells assessed as change in cyclin F mRNA level at 0.5 uM after 16 hrs by microarray analysis relative to untreated control; format: functional, cell-based; conditions: U-87MG ATCC
[27] = Disregulation of apoptosis related gene expression in human U87 cells assessed as change in BIM mRNA level at 0.5 uM after 16 hrs by microarray analysis relative to untreated control; format: functional, cell-based; conditions: U-87MG ATCC
[28] = Disregulation of inflammation related gene expression in human U87 cells assessed as change in IL1A mRNA level at 0.5 uM after 16 hrs by microarray analysis relative to untreated control; format: functional, cell-based; conditions: U-87MG ATCC
[29] = Disregulation of inflammation related gene expression in human U87 cells assessed as change in CXCL3 mRNA level at 0.5 uM after 16 hrs by microarray analysis relative to untreated control; format: functional, cell-based; conditions: U-87MG ATCC
U-87MG ATCC [30] = test: Antiproliferative activity against human U87 cells expressing GFP assessed as reduction in cell density at 20 uM by flash-cytometry; format: functional, cell-based
[31] = Disregulation of inflammation related gene expression in human U87 cells assessed as change in IL6 mRNA level at 0.5 uM after 16 hrs by microarray analysis relative to untreated control; format: functional, cell-based; conditions: U-87MG ATCC
[32] = Disregulation of apoptosis related gene expression in human U87 cells assessed as change in IGFBP3 mRNA level at 0.5 uM after 16 hrs by microarray analysis relative to untreated control; format: functional, cell-based; conditions: U-87MG ATCC
[33] = Disregulation of cell cycle related gene expression in human U87 cells assessed as change in CCPG1 mRNA level at 0.5 uM after 16 hrs by microarray analysis relative to untreated control; format: functional, cell-based; conditions: U-87MG ATCC
[34] = Disregulation of inflammation related gene expression in human U87 cells assessed as change in IFRD1 mRNA level at 0.5 uM after 16 hrs by microarray analysis relative to untreated control; format: functional, cell-based; conditions: U-87MG ATCC
[35] = Disregulation of inflammation related gene expression in human U87 cells assessed as change in IL1F5 mRNA level at 0.5 uM after 16 hrs by microarray analysis relative to untreated control; format: functional, cell-based; conditions: U-87MG ATCC

Cc1ccc(CN(Cc2ccc(O)c3ncccc23)Cc2ccc(O)c3ncccc23)cc1
> 6.70: pEC50 [23]
3 nM: CC50 [20]
> 1.4: fold change (FC) [2] | fold change (FC) [11] | fold change (FC) [18] | fold change (FC) [21]
active: Activity [24] | Activity [28] | Activity (U-87MG ATCC [30])
inactive: Activity (U-87MG ATCC [9])
>1.4: fold change (FC) [17]
3: fold change (FC) [1] | fold change (FC) [3] | fold change (FC) [4] | fold change (FC) [5] | fold change (FC) [6] | fold change (FC) [7] | fold change (FC) [8] | fold change (FC) [10] | fold change (FC) [12] | fold change (FC) [13] | fold change (FC) [14] | fold change (FC) [15] | fold change (FC) [16] | fold change (FC) [19] | fold change (FC) [22] | fold change (FC) [25] | fold change (FC) [26] | fold change (FC) [27] | fold change (FC) [29] | fold change (FC) [31] | fold change (FC) [32] | fold change (FC) [33] | fold change (FC) [34] | fold change (FC) [35]
